Source: PubChem BioAssay AID1259407 (Chemical Carcinogenesis Research Information System (CCRIS), 2018)
Activity calls are given as the source filed them. How the calls were made is not given here.

System: CCRIS mutagenicity, Ames/micronucleus/aberration tests
Assay: CCRIS mutagenicity studies
[1] = Test System: AMES SALMONELLA TYPHIMURIUM, Strain/Indicator: TA98, Metabolic Activation: NONE, Method: PREINCUBATION
[2] = Test System: AMES SALMONELLA TYPHIMURIUM, Strain/Indicator: TA100, Metabolic Activation: NONE, Method: PREINCUBATION
[3] = Test System: AMES SALMONELLA TYPHIMURIUM, Strain/Indicator: TA102, Metabolic Activation: NONE, Method: PREINCUBATION
[4] = Test System: AMES SALMONELLA TYPHIMURIUM, Strain/Indicator: TA1535, Metabolic Activation: NONE, Method: STANDARD PLATE

CCOCCOC(C)=O
mutagenic call [1]: inactive; negative
mutagenic call (Test System: AMES SALMONELLA TYPHIMURIUM, Strain/Indicator: TA98, Metabolic Activation: RAT LIVER S-9, PHENOBARBITAL AND BETA-NAPHTHOFLAVONE, Method: PREINCUBATION): inactive; negative
mutagenic call [2]: inactive; negative
mutagenic call (Test System: AMES SALMONELLA TYPHIMURIUM, Strain/Indicator: TA100, Metabolic Activation: RAT LIVER S-9, PHENOBARBITAL AND BETA-NAPHTHOFLAVONE, Method: PREINCUBATION): inactive; negative
mutagenic call [3]: inactive; negative
mutagenic call (Test System: AMES SALMONELLA TYPHIMURIUM, Strain/Indicator: TA102, Metabolic Activation: RAT LIVER S-9, PHENOBARBITAL AND BETA-NAPHTHOFLAVONE, Method: PREINCUBATION): inactive; negative
mutagenic call (Test System: AMES SALMONELLA TYPHIMURIUM, Strain/Indicator: TA104, Metabolic Activation: NONE, Method: PREINCUBATION): inactive; negative
mutagenic call (Test System: AMES SALMONELLA TYPHIMURIUM, Strain/Indicator: TA104, Metabolic Activation: RAT LIVER S-9, PHENOBARBITAL AND BETA-NAPHTHOFLAVONE, Method: PREINCUBATION): inactive; negative
mutagenic call (Test System: AMES SALMONELLA TYPHIMURIUM, Strain/Indicator: TA1535, Metabolic Activation: NONE, Method: PREINCUBATION): inactive; negative
mutagenic call (Test System: AMES SALMONELLA TYPHIMURIUM, Strain/Indicator: TA1535, Metabolic Activation: RAT LIVER S-9, PHENOBARBITAL AND BETA-NAPHTHOFLAVONE, Method: PREINCUBATION): inactive; negative
mutagenic call (Test System: AMES SALMONELLA TYPHIMURIUM, Strain/Indicator: TA1537, Metabolic Activation: NONE, Method: PREINCUBATION): inactive; negative
mutagenic call (Test System: AMES SALMONELLA TYPHIMURIUM, Strain/Indicator: TA1537, Metabolic Activation: RAT LIVER S-9, PHENOBARBITAL AND BETA-NAPHTHOFLAVONE, Method: PREINCUBATION): inactive; negative
mutagenic call (Test System: E.COLI, Strain/Indicator: WP2UVRA/PKM101, Metabolic Activation: NONE, Method: PREINCUBATION): inactive; negative
mutagenic call (Test System: E.COLI, Strain/Indicator: WP2UVRA/PKM101, Metabolic Activation: RAT LIVER S-9, PHENOBARBITAL AND BETA-NAPHTHOFLAVONE, Method: PREINCUBATION): inactive; negative
mutagenic call (Test System: E.COLI, Strain/Indicator: WP2UVRA, Metabolic Activation: NONE, Method: PREINCUBATION): inactive; negative
mutagenic call (Test System: E.COLI, Strain/Indicator: WP2UVRA, Metabolic Activation: RAT LIVER S-9, PHENOBARBITAL AND BETA-NAPHTHOFLAVONE, Method: PREINCUBATION): inactive; negative

NCC1CCC(C(=O)c2ccc(CCC(=O)O)cc2)CC1 (centres undefined)
mutagenic call (Test System: AMES SALMONELLA TYPHIMURIUM, Strain/Indicator: TA98, Metabolic Activation: NONE, Method: STANDARD PLATE): inactive; negative
mutagenic call (Test System: AMES SALMONELLA TYPHIMURIUM, Strain/Indicator: TA98, Metabolic Activation: RAT, LIVER, S-9, AROCLOR 1254, Method: STANDARD PLATE): inactive; negative
mutagenic call (Test System: AMES SALMONELLA TYPHIMURIUM, Strain/Indicator: TA100, Metabolic Activation: NONE, Method: STANDARD PLATE): inactive; negative
mutagenic call (Test System: AMES SALMONELLA TYPHIMURIUM, Strain/Indicator: TA100, Metabolic Activation: RAT, LIVER, S-9, AROCLOR 1254, Method: STANDARD PLATE): inactive; negative
mutagenic call [4]: inactive; negative
mutagenic call (Test System: AMES SALMONELLA TYPHIMURIUM, Strain/Indicator: TA1535, Metabolic Activation: RAT, LIVER, S-9, AROCLOR 1254, Method: STANDARD PLATE): inactive; negative
mutagenic call (Test System: AMES SALMONELLA TYPHIMURIUM, Strain/Indicator: TA1537, Metabolic Activation: NONE, Method: STANDARD PLATE): inactive; negative
mutagenic call (Test System: AMES SALMONELLA TYPHIMURIUM, Strain/Indicator: TA1537, Metabolic Activation: RAT, LIVER, S-9, AROCLOR 1254, Method: STANDARD PLATE): inactive; negative
mutagenic call (Test System: AMES SALMONELLA TYPHIMURIUM, Strain/Indicator: TA1538, Metabolic Activation: NONE, Method: STANDARD PLATE): inactive; negative
mutagenic call (Test System: AMES SALMONELLA TYPHIMURIUM, Strain/Indicator: TA1538, Metabolic Activation: RAT, LIVER, S-9, AROCLOR 1254, Method: STANDARD PLATE): inactive; negative
mutagenic call (Test System: E. COLI, Strain/Indicator: WP2 UVRA, Metabolic Activation: NONE, Method: STANDARD PLATE): inactive; negative
mutagenic call (Test System: E. COLI, Strain/Indicator: WP2 UVRA, Metabolic Activation: RAT, LIVER, S-9, AROCLOR 1254, Method: STANDARD PLATE): inactive; negative

CCCNC(=O)C=Cc1ccc([N+](=O)[O-])o1
mutagenic call [1]: active; positive

N[C@@H](CS)C(=O)OC(=O)NCCCl
mutagenic call [4]: active; positive

Cc1cccc2cc3ccc4ccccc4c3nc12
mutagenic call (Test System: AMES SALMONELLA TYPHIMURIUM, Strain/Indicator: TA97A, Metabolic Activation: NONE, Method: PREINCUBATION): inactive; negative
mutagenic call [1]: inactive; negative
mutagenic call [2]: inactive; negative
mutagenic call [3]: inactive; negative
